Source: PMC3501149 (ACS Chemical Biology, 2012)

Target: firefly luciferase (Fluc) (Photinus pyralis, UniProt P08659)
Assay: luminescence emission spectrum
Type: biochemical

firefly luciferase (Fluc), sequence (P08659 whole entry): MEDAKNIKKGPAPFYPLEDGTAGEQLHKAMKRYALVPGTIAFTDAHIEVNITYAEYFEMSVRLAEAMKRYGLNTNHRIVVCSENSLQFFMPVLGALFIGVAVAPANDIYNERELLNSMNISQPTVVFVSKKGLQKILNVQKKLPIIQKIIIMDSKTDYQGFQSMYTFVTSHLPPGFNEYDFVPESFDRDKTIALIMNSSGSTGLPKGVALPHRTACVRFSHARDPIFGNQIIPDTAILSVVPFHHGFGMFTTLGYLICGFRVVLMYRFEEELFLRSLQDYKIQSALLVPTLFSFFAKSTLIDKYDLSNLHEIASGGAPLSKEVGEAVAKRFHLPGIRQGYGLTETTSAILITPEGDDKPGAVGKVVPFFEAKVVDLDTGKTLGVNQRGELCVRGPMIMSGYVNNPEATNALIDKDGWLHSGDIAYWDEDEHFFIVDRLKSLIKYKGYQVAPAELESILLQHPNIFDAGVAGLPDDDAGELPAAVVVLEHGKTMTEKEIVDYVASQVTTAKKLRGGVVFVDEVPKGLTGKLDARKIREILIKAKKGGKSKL

luminescence emission spectrum: Fluc (D-luciferin)
Structure (SMILES): O=C(O)[C@H]1CSC(c2nc3ccc(O)cc3s2)=N1 [D-luciferin]
